Assay in all cases: Weeding effect in post-emergence stage
Holding throughout (type): in vivo
Holding throughout (conditions): 250 g/ha; 2 leaf stage; 15 days after application; fresh weight control rate

The subject of one experiment is Setaria viridis. An outline of the steps:
(§1)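 Post-emergence spray, 2-leaf stage; doses 500–15 g/ha; acetone + Tween 80 + methyl oleate EC (1.5 L/ha) as synergist. Greenhouse 15 d. Readout: fresh weight control rate graded levels 0–5 (5 = above 85%, 0 = below 5%); triplicate means.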

The test system of a further experiment is Abutilon theophrasti. An outline of the steps:
as §1

The next experiment deals with Amaranthus retroflexus. An outline of the steps: as §1
Another experiment deals with Digitaria sanguinalis. An outline of the steps: as §1
A further experiment has as its system Echinochloa crusgali. An outline of the steps: as §1

Take `CSc1c(C(=O)Nc2nnc(C)o2)ccc(C(F)(F)F)c1[S@+]([O-])CC(C)C` [Compound 551]: the “weeding effect in post-emergence stage, activity level (growth control rate), Setaria viridis” value (“weeding effect … Setaria viridis” for short) in the experiment on Setaria viridis is reported as 5 (Level 5: growth control rate is above 85%). The “weeding effect in post-emergence stage, activity level (growth control rate), Abutilon theophrasti” value (shortened to “weeding effect … Abutilon theophrasti”) with Abutilon theophrasti is on record as 5 (Level 5: growth control rate is above 85%). For the same compound, the “weeding effect in post-emergence stage, activity level (growth control rate), Amaranthus retroflexus” value (“weeding effect … Amaranthus retroflexus” for short) in the experiment with Amaranthus retroflexus was 5 (Level 5: growth control rate is above 85%). The “weeding effect in post-emergence stage, activity level (growth control rate), Digitaria sanguinalis” value (from here on “weeding effect … Digitaria sanguinalis”) in the experiment with Digitaria sanguinalis was 5 (Level 5: growth control rate is above 85%). In addition, the “weeding effect in post-emergence stage, activity level (growth control rate), Echinochloa crusgali” value (“weeding effect … Echinochloa crusgali” for short) in the experiment on Echinochloa crusgali is 5 (Level 5: growth control rate is above 85%).
Take `C#CC[S@@+]([O-])c1c(C(F)(F)F)ccc(C(=O)Nc2nnc(C)o2)c1SC` [Compound 553]: the “weeding effect … Setaria viridis” value in the experiment on Setaria viridis is given as 5 (Level 5: growth control rate is above 85%). Further, the “weeding effect … Abutilon theophrasti” value in the experiment with Abutilon theophrasti was 5 (Level 5: growth control rate is above 85%). For the same compound, the “weeding effect … Amaranthus retroflexus” value in the experiment with Amaranthus retroflexus is recorded as 5 (Level 5: growth control rate is above 85%). Besides, the “weeding effect … Digitaria sanguinalis” value in the experiment on Digitaria sanguinalis is on record as 5 (Level 5: growth control rate is above 85%). In the experiment on Echinochloa crusgali, the “weeding effect … Echinochloa crusgali” value is reported as 5 (Level 5: growth control rate is above 85%).
As to `CSc1c(C(=O)Nc2nnc(C)o2)ccc(C(F)(F)F)c1[S@+]([O-])CCF` [Compound 555], the “weeding effect … Setaria viridis” value in the experiment on Setaria viridis was 5 (Level 5: growth control rate is above 85%). The “weeding effect … Abutilon theophrasti” value in the experiment with Abutilon theophrasti is 5 (Level 5: growth control rate is above 85%). In the experiment on Amaranthus retroflexus, the “weeding effect … Amaranthus retroflexus” value is listed as 5 (Level 5: growth control rate is above 85%). Also, in the experiment with Digitaria sanguinalis, the “weeding effect … Digitaria sanguinalis” value is 5 (Level 5: growth control rate is above 85%). In the experiment on Echinochloa crusgali, the “weeding effect … Echinochloa crusgali” value is reported as 5 (Level 5: growth control rate is above 85%).
Consider `CSc1c(C(=O)Nc2nnc(C)o2)ccc(C(F)(F)F)c1[S@+]([O-])CC(F)(F)F` [Compound 556], for which, in the experiment with Setaria viridis, the “weeding effect … Setaria viridis” value is reported as 5 (Level 5: growth control rate is above 85%). The “weeding effect … Abutilon theophrasti” value with Abutilon theophrasti was 5 (Level 5: growth control rate is above 85%). Further, the “weeding effect … Amaranthus retroflexus” value with Amaranthus retroflexus is 5 (Level 5: growth control rate is above 85%). Further, the “weeding effect … Digitaria sanguinalis” value in the experiment on Digitaria sanguinalis was 5 (Level 5: growth control rate is above 85%). For the same compound, the “weeding effect … Echinochloa crusgali” value in the experiment on Echinochloa crusgali is listed as 5 (Level 5: growth control rate is above 85%).
Regarding `CSc1c(C(=O)Nc2nnc(C)o2)ccc(C(F)(F)F)c1[S@+]([O-])CC(C)F` (stereo partly shown) [Compound 557], the “weeding effect … Setaria viridis” value in the experiment on Setaria viridis is on record as 5 (Level 5: growth control rate is above 85%). For the same compound, in the experiment on Abutilon theophrasti, the “weeding effect … Abutilon theophrasti” value is on record as 5 (Level 5: growth control rate is above 85%). In addition, the “weeding effect … Amaranthus retroflexus” value in the experiment on Amaranthus retroflexus is reported as 5 (Level 5: growth control rate is above 85%). For the same compound, the “weeding effect … Digitaria sanguinalis” value with Digitaria sanguinalis was 5 (Level 5: growth control rate is above 85%). Moreover, in the experiment on Echinochloa crusgali, the “weeding effect … Echinochloa crusgali” value is 5 (Level 5: growth control rate is above 85%).
For `CSc1c(C(=O)Nc2nnc(C)o2)ccc(C(F)(F)F)c1[S@+]([O-])CC(F)F` [Compound 558], the “weeding effect … Setaria viridis” value in the experiment with Setaria viridis is recorded as 5 (Level 5: growth control rate is above 85%). Besides, the “weeding effect … Abutilon theophrasti” value in the experiment on Abutilon theophrasti is 5 (Level 5: growth control rate is above 85%). In addition, the “weeding effect … Amaranthus retroflexus” value with Amaranthus retroflexus is listed as 5 (Level 5: growth control rate is above 85%). In the experiment on Digitaria sanguinalis, the “weeding effect … Digitaria sanguinalis” value is recorded as 5 (Level 5: growth control rate is above 85%). The “weeding effect … Echinochloa crusgali” value in the experiment on Echinochloa crusgali was 5 (Level 5: growth control rate is above 85%).
In the case of `CSc1c(C(=O)Nc2nnc(C)o2)ccc(C(F)(F)F)c1[S@+]([O-])CCC(F)(F)F` [Compound 560], in the experiment with Setaria viridis, the “weeding effect … Setaria viridis” value was 5 (Level 5: growth control rate is above 85%). Moreover, the “weeding effect … Abutilon theophrasti” value in the experiment with Abutilon theophrasti is recorded as 5 (Level 5: growth control rate is above 85%). Further, in the experiment on Amaranthus retroflexus, the “weeding effect … Amaranthus retroflexus” value is reported as 5 (Level 5: growth control rate is above 85%). Also, in the experiment on Digitaria sanguinalis, the “weeding effect … Digitaria sanguinalis” value was 5 (Level 5: growth control rate is above 85%). Besides, the “weeding effect … Echinochloa crusgali” value in the experiment on Echinochloa crusgali is 5 (Level 5: growth control rate is above 85%).
Regarding `CSc1c(C(=O)Nc2nnc(C)o2)ccc(C(F)(F)F)c1[S@+]([O-])CCCC(F)(F)F` [Compound 561], in the experiment on Setaria viridis, the “weeding effect … Setaria viridis” value is 5 (Level 5: growth control rate is above 85%). The “weeding effect … Abutilon theophrasti” value in the experiment with Abutilon theophrasti is 5 (Level 5: growth control rate is above 85%). In addition, the “weeding effect … Amaranthus retroflexus” value in the experiment with Amaranthus retroflexus was 5 (Level 5: growth control rate is above 85%). The “weeding effect … Digitaria sanguinalis” value with Digitaria sanguinalis was 5 (Level 5: growth control rate is above 85%). Also, in the experiment on Echinochloa crusgali, the “weeding effect … Echinochloa crusgali” value is on record as 5 (Level 5: growth control rate is above 85%).
As to `CSc1c(C(=O)Nc2nnc(C)o2)ccc(C(F)(F)F)c1[S@+]([O-])CCCl` [Compound 562], the “weeding effect … Setaria viridis” value in the experiment with Setaria viridis is 5 (Level 5: growth control rate is above 85%). Further, in the experiment with Abutilon theophrasti, the “weeding effect … Abutilon theophrasti” value was 5 (Level 5: growth control rate is above 85%). Moreover, the “weeding effect … Amaranthus retroflexus” value in the experiment with Amaranthus retroflexus is 5 (Level 5: growth control rate is above 85%). In addition, the “weeding effect … Digitaria sanguinalis” value with Digitaria sanguinalis is 5 (Level 5: growth control rate is above 85%). For the same compound, in the experiment with Echinochloa crusgali, the “weeding effect … Echinochloa crusgali” value is recorded as 5 (Level 5: growth control rate is above 85%).
Take `CSc1c(C(=O)Nc2nnc(C)o2)ccc(C(F)(F)F)c1[S@+]([O-])CCCCl` [Compound 563]: in the experiment on Setaria viridis, the “weeding effect … Setaria viridis” value is on record as 5 (Level 5: growth control rate is above 85%). For the same compound, in the experiment on Abutilon theophrasti, the “weeding effect … Abutilon theophrasti” value is recorded as 5 (Level 5: growth control rate is above 85%). For the same compound, the “weeding effect … Amaranthus retroflexus” value in the experiment on Amaranthus retroflexus was 5 (Level 5: growth control rate is above 85%). Moreover, the “weeding effect … Digitaria sanguinalis” value in the experiment on Digitaria sanguinalis is 5 (Level 5: growth control rate is above 85%). Moreover, in the experiment with Echinochloa crusgali, the “weeding effect … Echinochloa crusgali” value is 5 (Level 5: growth control rate is above 85%).
Turning to `CSc1c(C(=O)Nc2nnc(C)o2)ccc(C(F)(F)F)c1[S@+]([O-])CC#N` [Compound 564], in the experiment on Setaria viridis, the “weeding effect … Setaria viridis” value was 5 (Level 5: growth control rate is above 85%). For the same compound, the “weeding effect … Abutilon theophrasti” value with Abutilon theophrasti was 5 (Level 5: growth control rate is above 85%). In addition, in the experiment on Amaranthus retroflexus, the “weeding effect … Amaranthus retroflexus” value was 5 (Level 5: growth control rate is above 85%). In addition, the “weeding effect … Digitaria sanguinalis” value with Digitaria sanguinalis is listed as 5 (Level 5: growth control rate is above 85%). In addition, the “weeding effect … Echinochloa crusgali” value in the experiment with Echinochloa crusgali is given as 5 (Level 5: growth control rate is above 85%).

The record behind these values is patent US12643871B2, “Aryl formamide compound containing chiral sulfur oxide or salt thereof, preparation method, herbicidal composition and use thereof” (Qingdao Kingagroot Chemical Compound Co., Ltd., priority 2019, dated 2026).
